Results taken from article PMC8607422, “Development of a novel TLR8 agonist for cancer immunotherapy” (Molecular Biomedicine, 2020).

How the values were obtained:
hTLR7 = molecular target: T1, hTLR7 (Homo sapiens, UniProt Q9NYK1); experiment: HEK-Blue hTLR7 SEAP reporter agonist assay; assay type: cell-based; conditions: HEK-Blue hTLR7 cells, highest concentration 50 μM
T1 construct: host or cells: HEK-Blue hTLR7
T1 sequence (Q9NYK1 27-1049): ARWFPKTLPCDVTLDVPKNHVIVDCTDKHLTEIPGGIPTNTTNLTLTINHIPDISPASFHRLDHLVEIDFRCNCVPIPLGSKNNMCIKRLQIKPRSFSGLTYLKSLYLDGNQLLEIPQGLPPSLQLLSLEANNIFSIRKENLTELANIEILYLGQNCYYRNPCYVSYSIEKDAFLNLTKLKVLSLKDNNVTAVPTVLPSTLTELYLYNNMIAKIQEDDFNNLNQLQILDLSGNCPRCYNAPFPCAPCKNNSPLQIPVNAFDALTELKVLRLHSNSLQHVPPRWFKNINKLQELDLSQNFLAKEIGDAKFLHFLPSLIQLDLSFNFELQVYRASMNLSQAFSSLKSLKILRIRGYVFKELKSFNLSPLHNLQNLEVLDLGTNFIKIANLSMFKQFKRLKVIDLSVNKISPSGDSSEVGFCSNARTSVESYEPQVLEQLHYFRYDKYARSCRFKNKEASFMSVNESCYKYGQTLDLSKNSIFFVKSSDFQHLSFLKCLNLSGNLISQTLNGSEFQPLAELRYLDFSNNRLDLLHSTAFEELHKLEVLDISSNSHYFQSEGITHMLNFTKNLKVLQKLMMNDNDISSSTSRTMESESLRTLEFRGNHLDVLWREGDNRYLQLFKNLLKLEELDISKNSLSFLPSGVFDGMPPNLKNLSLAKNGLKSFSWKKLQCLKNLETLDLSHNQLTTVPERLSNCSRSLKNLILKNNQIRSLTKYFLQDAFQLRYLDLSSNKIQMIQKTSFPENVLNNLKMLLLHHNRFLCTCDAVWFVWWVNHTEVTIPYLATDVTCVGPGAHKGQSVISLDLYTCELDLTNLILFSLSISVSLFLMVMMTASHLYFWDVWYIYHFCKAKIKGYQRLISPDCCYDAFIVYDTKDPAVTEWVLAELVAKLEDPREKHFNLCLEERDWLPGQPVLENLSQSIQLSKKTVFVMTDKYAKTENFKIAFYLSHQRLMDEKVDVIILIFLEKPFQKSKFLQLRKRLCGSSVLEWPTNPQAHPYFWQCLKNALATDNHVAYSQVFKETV
From the text: HEK-Blue™ hTLR4, 7, 8 and 9 cell lines were purchased from InvivoGen (Hong Kong). The cells express the human TLR gene and NF-κB/AP-1-inducible SEAP (secreted embryonic alkaline phosphatase) reporter gene. SEAP levels produced upon TLR stimulation can be determined by QUANTI-Blue™. In the cell-based assay, the main reagents used were QUANTI-Blue™ (InvivoGen) and ATPlite 1 Step (Perkin Elmer). The main instruments used were the microplate reader SpectraMax 340PC (Molecular Device) and Envision (Perkin Elmer). Motolimod and DN052 were synthesized in house. […] The compounds were in 10 mM stock solution in DMSO and stored at − 20°C. The compounds were serially diluted in the concentration range from 0.5 nM to 15 μM (up to 50 μM in the hTLR4, hTLR7 and hTLR9 assays) and added to 96-well plates. DMSO was used as the negative control. LPS-EK, R848, motolimod and ODN2006 were used as the positive control for TLR4, 7, 8 and 9, respectively. The cells were cultured and treated with the compounds at 37°C, 5%CO2 for 24 h. […] After 1.5 h of incubation, the optical density was measured using the spectrophotometer at 650 nm in the microplate reader of SpectraMax 340PC. The cell viability of each well was determined using ATPlite 1 Step following the manufacturer’s instruction. The luminescence signal in each well of plates was measured in the microplate reader of Envision.

HL-60 cells = experiment: Nitroblue Tetrazolium (NBT) cell differentiation assay; assay type: cell-based; conditions: Homo sapiens, unit from concentration axis
From the text: Supplementary file 43556_2020_7_MOESM1_ESM.pdf: Additional file 1: Supplementary Fig. 1. […] Suplementary Fig. 2. […] Supplementary Fig. 3. Nitroblue Tetrazolium (NBT) cell differentiation assay. […] Supplementary Fig. 4. Representative data from human PBMC assay. […] Similar results were obtained from two different donors.

SMILES: CCCN(CCC)C(=O)C1=Cc2ccc(-c3ccc(C(=O)N4CCCC4)cc3)cc2N=C(N)C1 [Motolimod, motolimod]
- EC50 (hTLR7): 19.8 µM
- EC50 (HL-60 cells): 1.43 µM
